Experimental data as given in US20170021002A1, “AUGMENTATION OF CANCER AND CANCER ENDOTHELIAL VACCINE IMMUNOGENICITY BY HISTONE DEACETYLASE INHIBITORS” (Batu Biologics, Inc., priority 2015, published 2017).

B1: interferon gamma: cytokine used to pretreat placental endothelial cells (100 IU per ml) (protein, UniProt P01579 24-161, looked up)
Interferon gamma: QDPYVKEAENLKKYFNAGHSDVADNGTLFLGILKNWKEESDRKIMQSQIVSFYFKLFKNFKDDQSIQKSVETIKEDMNVKFFNSNKKKRDDFEKLTNYSVTDLNVQRKAIHELIQVMAELSPAAKTGKRKRSQMLFRG

Experiments:
LLC cells = assay: Ex vivo cytotoxicity of NK cells from in vivo valproic acid treated mice to LLC cells; assay type: cell-based; details: NK cells isolated from in vivo valproic acid treated mice
[1] = test system: allogeneic responding lymphocytes (responder PBMC); assay: Mixed lymphocyte reaction, proliferation by [3H]-thymidine incorporation; assay type: cell-based, human; details: placental endothelial stimulator cells pretreated with the agent; FIG. 1a
Protocol: (§1) Peripheral blood mononuclear cells (PBMC) were isolated from buffy coats of healthy blood donors (Sanquin, Rotterdam, the Netherlands) by density gradient centrifugation using Ficoll-Paque PLUS (density 1.077 g/ml; GE Healthcare, Uppsala, Sweden). Cells were frozen at −150° C. until further use in RPMI-1640 medium with GlutaMAX™-I (Life Technologies) supplemented with 1% P/S, 10% human serum (Sanquin) and 10% dimethylsulphoxide (DMSO; Merck, Hohenbrunn, Germany).
(§2) Mixed lymphocyte reactions (MLR) were set up with 5×10^5 responder PBMC and 5×10^3 (1:100), 5×10^4 (1:10), […] γ-irradiated (10 Gy) ValloVax™ cells in round-bottomed 96-well plates (Nunc, Roskilde, Denmark). MLR were cultured in MEM-α supplemented with 2 mM L-glutamine, 1% P/S and 10% heat-inactivated human serum for 4 days in a humidified atmosphere with 5% CO2 at 37° C.
Cell proliferation was assessed by thymidine incorporation, [^3H]-thymidine (0.25 μCi/well; PerkinElmer, Groningen, the Netherlands) was added on day 4, incubated for 8 h and its incorporation was measured using the Wallac 1450 MicroBeta Trilux (PerkinElmer).
It was previously reported that ValloVax™, a placental endothelial derived cellular vaccine stimulates immunity to proliferating endothelium, resulting in tumor regression. […]

[2] = test system: mixed lymphocyte reaction (PBMC with ValloVax™ cells); assay: Cytokine ELISA of mixed lymphocyte reaction supernatants; assay type: cell-based, human; details: ValloVax™ treated with VPA
Protocol: as §1, §2
For cytokine analysis supernatant was collected on day two of culture and analyzed by ELISA (R & D Systems) as per manufacturer's instructions.

ValloVax™ cells [3] = assay: Ex vivo cytotoxicity of NK cells from in vivo valproic acid treated mice to ValloVax™ cells; assay type: cell-based; details: NK cells isolated from in vivo valproic acid treated mice
[4] = test system: Lewis Lung Carcinoma (LLC); assay: Established Lewis Lung Carcinoma tumor model; assay type: in vivo, C57BL/6 mice; details: for antitumor activity / efficacy: VPA systemically administered (100 mg/kg intraperitoneally every third day) to animals receiving ValloVax™, 100 mg/kg; for antitumor activity / efficacy / tumor killing activity / therapeutic efficacy: FIG. 5; for tumor killing activity / therapeutic efficacy: ValloVax™ pretreated in vitro with VPA, compared to standard ValloVax™, LLC bearing mice
Excerpt: Female C57BL/6 aged 8-12 weeks were purchased from The Jackson Laboratory. Animals were housed under conventional conditions at the Animal Care Facility, Institute for Cellular Immunology, and were cared for in accordance with the guidelines established by the Canadian Council on Animal Care. Lewis Lung Carcinoma (LLC), a murine lung carcinoma originating from C57/BL6 mice was obtained from American Type Culture Collection (ATCC). The cells were maintained in RPMI1640 supplemented with 10% fetal bovine serum, 2 mM glutamine (Gibco-BRL, Life Technologies, Inc.) and were passaged by trypsinization once cells reached 75% confluence. The cell line was cultured at 37°0 C. in a 5% CO2 incubator under fully humidified conditions.
For induction of tumor growth, 5×10^5 LLC cells, American Type Culture Collection (Manassas, Va.) cells were injected subcutaneously into the hind limb flank. Four weekly vaccinations of 5×10^5 test cells were administered subcutaneously on the contralateral side to which tumors were administered. Tumors were allowed to grow for 2 weeks, subsequently to which one injection of ValloVax™ or VPA-pretreated ValloVax™ was given. Valproic acid was administered every third day at a concentration of 100 mg/kg intraperitoneally. Tumor growth was assessed every 3 days by two measurements of perpendicular diameters by a caliper, and animals were sacrificed when tumors reached a size of 1 cm in any direction. Tumor volume was calculated by the following formula: (the shortest diameter^2×the longest diameter)/2.

[5] = test system: ValloVax™ cells cultured with NK-92 cells; assay: Killing of VPA treated ValloVax™ cells by NK-92 cell line; assay type: cell-based, human; details: FIG. 4
Protocol: Cells were incubated with or without 1 mM VPA for 48 hours. NK-92 cells were added to the target cells as effector cells, and the cells were co-cultured for 4 h 37° C. To block NKG2D on NK-92 cells, 10 μg/ml anti-NKG2D mAb or mouse IgG1 isotype control antibody were added to the NK cells 30 min before co-culture. Viability was assessed by CellTiter Viability kit from Promega following the manufacturer's instructions.

ValloVax™ cells [6] = assay: Viability of ValloVax™ stimulator cells in MLR (CellTiter); assay type: cell-based, human; details: ValloVax™ cells treated with VPA, cultured with allogeneic responding cells, FIG. 2
Protocol: Cells were incubated with or without 1 mM VPA for 48 hours.
Depletion of T cells, B cells and NK cells was performed with Magnetic Activated Cell (MACS) isolation kits from Milteny Biotec following the manufacturer's instructions.
Viability was assessed by CellTiter Viability kit from Promega following the manufacturer's instructions.
as §2

[7] = test system: non-small cell lung cancer (NSCLC); details: patients diagnosed with metastatic disease; cited from earlier work

| Molecule | cytotoxicity of NK cells to LLC cells (LLC cells) | Proliferation of allogeneic responding lymphocytes (allostimulatory activity) [1] | IL-10 in MLR ([2]; FIG. 1d) | production of IFN-gamma in MLR ([2]; supernatants from MLR at 48 hours, FIG. 1b) | production of IL-18 in MLR ([2]; supernatants from MLR at 48 hours, FIG. 1c) | cytotoxicity of NK cells to ValloVax™ cells ex vivo (ValloVax™ cells [3]) | antitumor activity / efficacy [4] | antitumor activity / efficacy ([4]; listed as valpoic acid) | antitumor activity / efficacy ([4]; listed as valproic acid) | tumor killing activity / therapeutic efficacy [4] | tumor killing activity / therapeutic efficacy ([4]; listed as valproic acid) | Survival ([4]; in vivo administration of VPA and ValloVax, established lung cancer model) | toxicity to VPA treated ValloVax™ cells [5] | viability of the ValloVax™ cells in MLR (ValloVax™ cells [6]) | viability of the ValloVax™ cells in MLR (ValloVax™ cells [6]; listed as valproic acid) | median overall survival (OS) [7] [months] |
| --- | --- | --- | --- | --- | --- | --- | --- | --- | --- | --- | --- | --- | --- | --- | --- | --- |
| CCCC(CCC)C(=O)O [VPA, Valproic acid] | enhanced cytotoxicity | not | no significant upregulation | substantially increased | substantially increased | enhanced cytotoxicity | synergistic antitumor activity | enhanced antitumor efficacy | augmented efficacy against lung cancer | did not significantly augment | did not augment in vivo efficacy | Significantly Enhances Survival | toxicity was observed | dose-dependent loss of viability | killing of ValloVax™ in vitro by an NK cell dependent mechanism | – |
| Nc1nc2[nH]cc(CCc3ccc(C(=O)N[C@@H](CCC(=O)O)C(=O)O)cc3)c2c(=O)[nH]1 [pemetrexed] | – | – | – | – | – | – | – | – | – | – | – | – | – | – | – | 17 |
| B1 | – | substantially enhanced | – | – | – | – | – | – | – | – | – | – | – | – | – | – |
